Series [1] deals with T1, NMUR2 (neuromedin U 2 receptor) (Homo sapiens, UniProt Q9GZQ4).
T1 construct: expressed in transfected cells; host or cells: HEK293 (HEK-NMU2)
As to the kind of experiment: Calcium mobilization assay, HEK-NMU2 cells. It counts as cell-based. Conditions: HEK293 cells expressing NMU2 receptor, NA = not active. The protocol: To test whether neuromedin U can be modified/derivatized to yield truncated bioactive compound(s) that may be useful as therapeutics, we synthesized a small library (25 peptides) of hNMU analogs utilizing various stabilization protocols, including: cyclization, lipidation, introduction of α,α-disubstituted and N-methylated amino acids, retro-inverso-approach, and combination of such (see Table 1). Subsequently all analogues were tested against human neuromedin U receptors (NMUR1 and NMUR2) in calcium mobilization assay (collaboration with Dr Gary Willars, University of Leicester, UK).
HEK293 cells expressing either the neuromedin U 1 receptor or neuromedin U 2 receptor (HEK-NMU1 and HEK-NMU2 respectively) were grown to approximately 90% confluence in ELISA strip plates (96-well format) pre-coated with poly-D-lysine (0.1% w/v) and loaded for 45 min at 37° C. with 2 iM fluo-4-AM in Krebs'-HEPES buffer with bovine serum albumin (KHB-BSA; composition: 10 mM HEPES; 4.2 mM NaHCO3; 11.7 mM D-glucose; 1.18 mM MgSO4.7H2O; 1.18 mM KH2PO4; 4.69 mM KCl; 118 mM NaCl; 1.3 mM CaCl2.2H2O; 0.1% (w/v) BSA; pH 7.4). Monolayers were then washed and equilibrated for 5 min at 37° C. in 100 il KHB-BSA for subsequent recording of fluorescence as an index of intracellular [Ca^2+] ([Ca^2+]i) using a microplate reader (NOVOstar; BMG LABTECH, Aylesbury, U.K.). Briefly, 20 μl of KHB-BSA, with or without ligand, was added into the well (200 μl/s) and fluorescence determined at 0.5 s intervals by excitation at 485 nm and collection of emitted light at 520 nm. Changes in fluorescence above basal levels (before ligand addition) were determined. […] Fmax was obtained by removal of buffer and addition of KHB-BSA buffer containing 4 mM [Ca^2+] and ionomycin (2 μM) to representative wells and the fluorescence measured for 10 min. Fmin was then derived by replacing buffer with Ca^2+-free KHB-BSA buffer containing 2 mM EGTA and fluorescence measured for 10 min. For the determination of concentration-response relationships, the maximal change in [Ca^2+]i was calculated following ligand addition. Concentration-response curves were then fitted using a four-parameter logistic equation to determine EC50 values (GraphPad Software Inc., Calif.).
Background: Calcium assays in cells follow changes in intracellular calcium, usually with a dye or a luminescent sensor.

Series [2] has as its system diet induced obese (DIO) mouse model. As to the kind of experiment: Single dose in vivo anorectic experiments in DIO mouse model. The note with it: DIO mice; for anorectic activity, single dose: single dose 5344 nMole/kg, FIG. 3A. From the text: FIG. 3. Single dose in vivo experiments performed in DIO mouse model. (A) Comparison of anorectic effects of NM4 and NM7. (B) NM4 dose response experiments. (C) Comparison of NM4 and NM4A anorectic activity.
Initially we focused on single dose experiments comparing NM4 and NM7 at 5344 nMole/kg dose (FIG. 3).

The conditions of series [3]: cited from earlier work.

Where a SMILES comes first, the peptide text is derived from it. [ ]: non-standard residue; d: D form. The star is where a group is joined. PEG12 = NCCOCCOCCOCCOCCOCCOCCOCCOCCOCCOCCOCCOCCC(=O)O; Oic = O=C(O)[C@@H]1C[C@@H]2CCCC[C@@H]2N1; Palmitoyl = CCCCCCCCCCCCCCCC(=O)*; Aib = CC(C)(N)C(=O)O; Ahx = NCCCCCC(=O)O

T1 sequence (Q9GZQ4 whole entry): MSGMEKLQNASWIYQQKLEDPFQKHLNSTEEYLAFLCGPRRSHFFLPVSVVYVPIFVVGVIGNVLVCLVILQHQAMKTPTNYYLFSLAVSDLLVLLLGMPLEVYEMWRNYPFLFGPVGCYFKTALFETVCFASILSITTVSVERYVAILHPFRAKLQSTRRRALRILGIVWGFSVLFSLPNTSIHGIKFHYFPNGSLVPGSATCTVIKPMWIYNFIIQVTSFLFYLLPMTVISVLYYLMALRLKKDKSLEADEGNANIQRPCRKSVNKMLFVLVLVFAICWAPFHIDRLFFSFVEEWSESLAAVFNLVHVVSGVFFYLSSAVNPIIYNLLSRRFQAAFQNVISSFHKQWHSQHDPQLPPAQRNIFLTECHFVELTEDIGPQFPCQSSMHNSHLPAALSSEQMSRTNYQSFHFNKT

`CC(=O)N[C@@H](Cc1ccccc1)C(=O)N[C@@H](CC(C)C)C(=O)N[C@@H](Cc1ccccc1)C(=O)N[C@@H](CCCNC(=N)N)C(=O)N1CCC[C@H]1C(=O)N[C@@H](CCCNC(=N)N)C(=O)N[C@@H](CC(N)=O)C(N)=O` [Peptide M1, Ac-FL-Phe-Arg-Pro-R-Asn] (Ac-FLFRPRN-NH2): the concentration giving a half-maximal response (EC50) in series [1] was found to be 0.6 ± 0.19 nM.
For the molecule `CC(C)C[C@H](NC(=O)[C@H](Cc1ccccc1)NC(=O)[C@H](Cc1ccc(O)cc1)NC(=O)CNC(=O)[C@H](CCCNC(=N)N)NC(=O)[C@H](CO)NC(=O)[C@H](CCC(N)=O)NC(=O)[C@H](CO)NC(=O)[C@H](C)NC(=O)[C@H](Cc1ccccc1)NC(=O)[C@@H]1CCCN1C(=O)[C@H](CO)NC(=O)[C@H](CCC(N)=O)NC(=O)[C@H](Cc1ccccc1)NC(=O)[C@H](CCC(=O)O)NC(=O)[C@H](CCC(=O)O)NC(=O)[C@H](CC(=O)O)NC(=O)[C@@H](NC(=O)[C@H](CCCNC(=N)N)NC(=O)[C@@H](N)Cc1ccccc1)C(C)C)C(=O)N[C@@H](Cc1ccccc1)C(=O)N[C@@H](CCCNC(=N)N)C(=O)N1CCC[C@H]1C(=O)N[C@@H](CCCNC(=N)N)C(=O)N[C@@H](CC(N)=O)C(N)=O` [hNMU, FRVDEEFQSPFASQSRGY-FL-Phe-Arg-Pro-R-Asn, reference compound] (H-FRVDEEFQSPFASQSRGYFLFRPRN-NH2), the EC50 in series [1] was 0.49 ± 0.13 nM.
`CCCCCCCCCCCCCCCC(=O)NCCOCCOCCOCCOCCOCCOCCOCCOCCOCCOCCOCCOCCC(=O)NC(C)(C)C(=O)N[C@@H](Cc1ccccc1)C(=O)N[C@@H](CC(C)C)C(=O)N[C@@H](Cc1ccccc1)C(=O)N[C@@H](CCCNC(=N)N)C(=O)N1CCC[C@H]1C(=O)N[C@@H](CCCNC(=N)N)C(=O)N[C@@H](CC(N)=O)C(N)=O` [Peptide M4, Pal-dPEG12-Aib-FL-Phe-Arg-Pro-R-Asn] ({Palmitoyl-PEG12}-[Aib]FLFRPRN-NH2): the EC50 in series [1] is 1.7 ± 0.29 nM. Further, the “anorectic activity, single dose” value in series [2] is “significant anorectic activity”. For the same molecule, the “dose dependence of anorectic effects” value in series [2] (single dose, FIG. 3B) is reported as “dose-dependent”.
On to “Neuromedin U (FRVDEEFQSPFASQSRGYFLFRPRN) [NMU]”, for which the “half-life after subcutaneous (sc) injection” value in series [3] (subcutaneous injection) is “less than 5 min”.
Turning to `CC(C)C[C@H](NC(=O)[C@H](Cc1ccccc1)NC(=O)CCCCCNC(=O)[C@@H](N)CS)C(=O)N[C@@H](Cc1ccccc1)C(=O)N[C@@H](CCCNC(=N)N)C(=O)N1CCC[C@H]1C(=O)N[C@@H](CCCNC(=N)N)C(=O)N[C@@H](CC(N)=O)C(=O)NCCCCCC(=O)N[C@@H](CS)C(N)=O` [Peptide M8, C-Ahx-FL-Phe-Arg-Pro-R-Asn-Ahx-C] (H-C[Ahx]FLFRPRN[Ahx]C-NH2), in series [1], the EC50 is 240 ± 35.7 nM.
As for `CC(C)C[C@H](NC(=O)[C@H](Cc1ccccc1)NC(=O)C(C)(C)N)C(=O)N[C@@H](Cc1ccccc1)C(=O)N[C@@H](CCCNC(=N)N)C(=O)N1CCC[C@H]1C(=O)N[C@@H](CCCNC(=N)N)C(=O)N[C@@H](CC(N)=O)C(N)=O` [Peptide M2, Aib-FL-Phe-Arg-Pro-R-Asn] (H-[Aib]FLFRPRN-NH2), the EC50 in series [1] worked out at 0.21 ± 0.07 nM.
Consider `CCCCCCCCCCCCCCCC(=O)NCCOCCOCCOCCOCCOCCOCCOCCOCCOCCOCCOCCOCCC(=O)NC(C)(C)C(=O)N[C@@H](Cc1ccccc1)C(=O)N[C@@H](CC(C)C)C(=O)N[C@@H](Cc1ccccc1)C(=O)N[C@@H](CCCNC(=N)N)C(=O)N1CCC[C@H]1C(=O)N[C@@H](CCCNC(=N)N)C(=O)N[C@@H](CC(N)=O)C(=O)NC(C)(C)C(N)=O` [Peptide M7, Pal-dPEG12-Aib-FL-Phe-Arg-Pro-R-Asn-Aib] ({Palmitoyl-PEG12}-[Aib]FLFRPRN[Aib]-NH2; N-terminus and C-terminus assumed), for which the “anorectic activity, single dose” value in series [2] is reported as “very limited activity in vivo”.
Regarding `CC(C)C[C@H](NC(=O)[C@H](Cc1ccccc1)NC(=O)C(C)(C)N)C(=O)N[C@@H](Cc1ccccc1)C(=O)N[C@@H](CCCNC(=N)N)C(=O)N1CCC[C@H]1C(=O)N[C@@H](CCCNC(=N)N)C(=O)N[C@@H](CC(N)=O)C(=O)NC(C)(C)C(N)=O` [Peptide M5, Aib-FL-Phe-Arg-Pro-R-Asn-Aib] (H-[Aib]FLFRPRN[Aib]-NH2), the EC50 in series [1] came out at 50.1 ± 16.2 nM.
Turning to `CCCCCCCCCCCCCCCC(=O)NC(C)(C)C(=O)N[C@@H](Cc1ccccc1)C(=O)N[C@@H](CC(C)C)C(=O)N[C@@H](Cc1ccccc1)C(=O)N[C@@H](CCCNC(=N)N)C(=O)N1CCC[C@H]1C(=O)N[C@@H](CCCNC(=N)N)C(=O)N[C@@H](CC(N)=O)C(N)=O` [Peptide M3, Pal-Aib-FL-Phe-Arg-Pro-R-Asn] (Palmitoyl-[Aib]FLFRPRN-NH2), the EC50 in series [1] was determined as 170 ± 34.9 nM.
Regarding `CC(C)C[C@H](NC(=O)[C@H](Cc1ccccc1)NC(=O)CCCCCNC(=O)[C@@H](N)CS)C(=O)N[C@@H](Cc1ccccc1)C(=O)N[C@@H](CCCNC(=N)N)C(=O)N1[C@H](C(=O)N[C@@H](CCCNC(=N)N)C(=O)N[C@@H](CC(N)=O)C(=O)NCCCCCC(=O)N[C@@H](CS)C(N)=O)C[C@@H]2CCCC[C@@H]21` [NM9, C-Ahx-FL-Phe-Arg-Oic-R-Asn-Ahx-C] (H-C[Ahx]FLFR[Oic]RN[Ahx]C-NH2), the EC50 in series [1] stood at 708 ± 171 nM.
Consider semaglutide, for which the plasma half-life in series [3] (in vivo) was 160 h.

In general, EC50 refers to the concentration that produces a half-maximal response.
